Source: patent publication US8178506B2, “Oligomeric compounds and compositions for use in modulation of small non-coding RNAs” (Regulus Therapeutics Inc., priority 2003, dated 2012)
In the oligonucleotide strings, read from the 5' end, every base follows the letter of its sugar. An asterisk marks phosphorothioate; unmarked linkages are phosphodiester. Other units and linkages are bracketed, terminal groups are in braces. A string of capitals states the bases alone. e = 2'-O-(2-methoxyethyl) (MOE); [5mC] = 5-methylcytosine; d = 2'-deoxy (DNA)

Tests used:
IL-12 mRNA = IL-12 mRNA in LPS-activated primary murine macrophages; type: cell-based, mouse; settings: for IL-12 mRNA expression, % UTC: LPS, average of 3 treatments; for IL-12 mRNA expression, +IFN % UTC: 300 nM oligomeric compound, stimulation with IFN-gamma and LPS, average of 2 experiments
Description: (§1) To investigate the role of miRNAs in the immune response, oligomeric compounds of the present invention targeting miRNAs were tested for their effects upon lipopolysaccharide (LPS)-activated primary murine macrophages. Macrophages participate in the immune response, for example, in the recognition and phagocytosis of microorganisms, including bacteria. Interferon-gamma (IFN-gamma) released by helper T cells is one type of signal required for macrophage activation, and LPS can serve as an additional stimulus. LPS is a component of the gram-negative bacterial cell wall and acts as an agonist for toll-like receptor 4 (TLR4), the primary LPS receptor expressed by macrophages. The proinflammatory cytokines interleukin-12 (IL-12) and interleukin-6 (IL-6) are induced by LPS treatment of macrophages, thus the expression of the mRNAs encoding these cytokines was used to evaluate the response of macrophages to LPS following treatment with oligomeric compounds targeting miRNAs.
(§2) Macrophages were isolated as follows. Female C57B1/6 mice (Charles River Laboratories, Wilmington, Mass.) were injected intraperitoneally with 1 ml 3% thioglycollate broth (Sigma-Aldrich, St. Louis, Mo.), and peritoneal macrophage cells were isolated by peritoneal lavage 4 days later. The cells were plated in 96-well plates at 40,000 cells/well for one hour in serum-free RPMI adjusted to contain 10 mM HEPES (Invitrogen Life Technologies, Carlsbad, Calif.), allowed to adhere, then non-adherent cells were washed away and the media was replaced with RPMI containing 10 mM HEPES, 10% FBS and penicillin/streptomycin (“complete” RPMI; Invitrogen Life Technologies, Carlsbad, Calif.).
(§3) Oligomeric compounds were introduced into the cells using the non-liposomal transfection reagent FuGENE 6 Transfection Reagent (Roche Diagnostics Corp., Indianapolis, Ind.). Oligomeric compound was mixed with FuGENE 6 in 1 mL of serum-free RPMI to achieve a concentration of 10 μL FuGENE per 1000 nM oligomeric compound. The oligomeric compound/FuGENE complex was allowed to form at room temperature for 20 minutes. This mixture was diluted to the desired concentration of oligomeric compound by the addition of the appropriate volume of complete RPMI. The final ratio of FuGENE 6 to oligomeric compound was 1 μL of FuGENE 6 per 100 nM oligomeric compound. A volume of 100 μL of oligomeric compound/FuGENE/RPMI was added to each well of the 96-well plate in which the macrophages were cultured. Each oligomeric compound treatment was repeated in triplicate.
(§4) Following oligomeric compound treatment, cells were stimultated with LPS. Cells were cultured in the presence of the transfection complex for approximately 24 to 28 hours at 37° C. and 5% CO2, after which the medium containing the transfection complex was removed from the cells, and complete RPMI containing 100 ng/mL LPS (Sigma-Aldrich Corp., St. Louis, Mo.) was added to the cells for a period of approximately 24 hours. Control samples included (1) cells receiving no oligomeric compound, stimulated with LPS and (2) cells receiving neither oligomeric compound nor LPS treatment.
(§5) In another embodiment, following oligomeric compound treatment, cells were first activated by IFN-gamma, to amplify the response to LPS. Cells were cultured in the presence of the transfection complex for approximately 24 hours at 37° C. and 5% CO2, at which point the medium containing the transfection complex was removed from the cells, and complete RPMI containing 100 ng/mL recombinant mouse IFN-gamma (R&D Systems, Minneapolis, Minn.) was added to the cells. After the 4 hour treatment with INF-gamma, cells were treated with 100 ng/mL LPS for approximately 24 hours. Control samples included (1) cells receiving no oligomeric compound, stimulated with LPS and (2) cells receiving neither oligomeric compound nor LPS treatment. […]

IL-6 mRNA = IL-6 mRNA in LPS-activated primary murine macrophages; type: cell-based, mouse; settings: for IL-6 mRNA expression, % UTC: average of 3 treatments; for IL-6 expression: IFN-gamma-stimulated and unstimulated cells, 75-600 nM
Description: as §1, §2, §3, §4, §5

A549 cells = assay: Cell cycle assay in A549 cells; type: cell-based, human; settings: A549, 25-, 50-, 100-, or 150 nM
Description: In accordance with the present invention, certain oligomeric compounds targeting miRNAs were selected for dose response studies. Using the cell cycle assay described above, the cell cycle profiles of HeLa or A549 cells treated with varying concentrations of oligomeric compounds of the present invention were assessed.
Concomittent decreases in the percentage of cells in G1-phase of the cell cycle and increases in the percentage of hypodiploid (subG1) cells were also observed.
In a further study, A549 cells were treated with 25-, 50-, 100- or 150 nM of the oligomeric compounds ISIS Numbers 338637 (SEQ ID NO: 464) targeted against mir-96, and ISIS 338769 (SEQ ID NO: 596) targeted against mir-130b, ISIS 338836 (SEQ ID NO: 663) targeted against mir-23a, and ISIS 340350 (SEQ ID NO: 855) targeted against mir-95 (Mourelatos). Cells treated with increasing concentrations of oligomeric compounds were compared to untreated cells, to assess the dose-responsiveness of the observed delay or arrest. The random-mer ISIS 29848 was used as a negative control. Cells were prepared for flow cytometry 24-hours after oligonucleotide treatment. Results of these dose response studies are shown in Table 34, where data are expressed as percentage of cells in each phase relative to the untreated control cells in that phase.

HeLa cells = assay: Cell cycle assay in HeLa cells; type: cell-based, human; settings: HeLa, 150 nM
HuVECs = assay: Endothelial tube formation assay in HuVECs; settings: 75 nM
T47D cells = assay: Caspase-3 activity assay (apoptosis) in T47D cells; settings: caspase assay, 200 nM; conclusion from Tables 9-12
PEPCK-c = PEPCK-c mRNA expression in HepG2 cells; type: cell-based, human; settings: HepG2, 1 nM insulin, 100 nM
[1] = normalized to LPS-treated cells without oligomeric compound

229927 (antisense e[5mC]*e[5mC]*eA*e[5mC]*eA*dT*dT*dG*dA*dG*dT*dT*dT*d[5mC]*dT*eT*eT*eA*eA*eG) [compound 229927]
IL-12 mRNA expression, % UTC (IL-12 mRNA; 75 nM, +IFN): 46 % UTC | IL-12 mRNA expression, % UTC (IL-12 mRNA; 75 nM, −IFN): 67 % UTC | IL-12 mRNA expression, % UTC (IL-12 mRNA; 150 nM, +IFN): 35 % UTC | IL-12 mRNA expression, % UTC (IL-12 mRNA; 150 nM, −IFN): 53 % UTC | IL-12 mRNA expression, −IFN % UTC (IL-12 mRNA; 300 nM oligomeric compound and LPS, no IFN-gamma pretreatment, single experiment, normalized to LPS-treated cells without oligomeric compound): 92 % UTC | IL-12 mRNA expression, +IFN % UTC (IL-12 mRNA; [1]): 145 % UTC | IL-12 mRNA expression, % UTC (IL-12 mRNA; 300 nM, +IFN): 16 % UTC | IL-12 mRNA expression, % UTC (IL-12 mRNA; 300 nM, −IFN): 45 % UTC | IL-12 mRNA expression, % UTC (IL-12 mRNA; 600 nM, +IFN): 8 % UTC | IL-12 mRNA expression, % UTC (IL-12 mRNA; 600 nM, −IFN): 46 % UTC | IL-6 mRNA expression, % UTC (IL-6 mRNA; 75 nM, +IFN): 54 % UTC | IL-6 mRNA expression, % UTC (IL-6 mRNA; 75 nM, −IFN): 57 % UTC | IL-6 mRNA expression, % UTC (IL-6 mRNA; 150 nM, +IFN): 39 % UTC | IL-6 mRNA expression, % UTC (IL-6 mRNA; 150 nM, −IFN): 52 % UTC | IL-6 mRNA expression, % UTC (IL-6 mRNA; 300 nM, +IFN): 40 % UTC | IL-6 mRNA expression, % UTC (IL-6 mRNA; 300 nM, −IFN): 44 % UTC | IL-6 mRNA expression, % UTC (IL-6 mRNA; 600 nM, +IFN): 69 % UTC | IL-6 mRNA expression, % UTC (IL-6 mRNA; 600 nM, −IFN): 104 % UTC

GGCTGTCAATTCATAGGTCAG (anti-miR; chemistry not fully specified) [ISIS 327902]
G2/M delay or arrest, dose response (A549 cells): dose-responsive G2/M delay or arrest | phase of the cell cycle in which cells arrest or delay (HeLa cells; 24 hours): G2/M-phase | phase of the cell cycle in which cells arrest or delay (HeLa cells; 48 hours): S- and G2/M-phases | tube formation (HuVECs): suppressed tube formation

ISIS 328383: chimeric 2′-MOE gapmer targeted against the mir-192-1 precursor (eA*eG*eA*eG*eG*dG*dG*dA*dG*dA*d[5mC]*dG*dA*dG*dA*eG*e[5mC]*eA*e[5mC]*eT)
G2/M delay or arrest, dose response (A549 cells): dose-responsive G2/M delay or arrest | phase of the cell cycle in which cells arrest or delay (HeLa cells; 24 hours): G2/M-phase | phase of the cell cycle in which cells arrest or delay (HeLa cells; 48 hours): S- and G2/M-phases | apoptosis in T47D cells (T47D cells): induce apoptosis

ISIS 328342: SEQ ID NO: 451, targeting mir-203 (e[5mC]*eA*eA*eT*eT*dG*d[5mC]*dG*d[5mC]*dT*dA*d[5mC]*dA*dG*dA*eA*e[5mC]*eT*eG*eT)
reduction of PEPCK-c mRNA expression (PEPCK-c): 61% | G2/M delay or arrest, dose response (A549 cells): dose-responsive G2/M delay or arrest | phase of the cell cycle in which cells arrest or delay (HeLa cells; both 24 and 48 hours): G2/M-phase

CTTCCAGTCGGGGATGTTTACA (anti-miR; chemistry not fully specified) [ISIS 327921, uniform 2′-MOE PS; targets mir-30d]
IL-12 expression, % of the control (IL-12 mRNA; IFN-gamma then LPS, 75 nM): 14% | IL-12 expression, % of the untreated control (IL-12 mRNA; IFN-gamma then LPS, all other doses (150, 300, 600 nM)): less than 10% | IL-12 expression, percentage of untreated control (IL-12 mRNA; LPS alone, 75, 150, 300 and 600 nM): ≥ 53% | IL-12 mRNA expression (IL-12 mRNA; LPS-stimulated primary murine macrophages): inhibited IL-12 mRNA expression in a dose-dependent manner | IL-6 expression (IL-6 mRNA): increased in a dose-dependent manner

AACCCACCGACAGCAATGAATGTT (chemistry not given here) [ISIS 327941, uniform 2′-MOE PS; targets mir-181b]
IL-12 mRNA expression, % of the untreated control (IL-12 mRNA; IFN-gamma then LPS, all doses): less than 5% | IL-6 expression (IL-6 mRNA): increased in a dose-dependent manner

289606 (antisense CCUUCCCUGAAGGUUCCUCC; all 2'-MOE, all C 5-methyl, all phosphorothioate, T or U not given here) [compound 289606]
IL-12 mRNA expression, % UTC (IL-12 mRNA; 75 nM, +IFN): 59 % UTC | IL-12 mRNA expression, % UTC (IL-12 mRNA; 75 nM, −IFN): 89 % UTC | IL-12 mRNA expression, % UTC (IL-12 mRNA; 150 nM, +IFN): 46 % UTC | IL-12 mRNA expression, % UTC (IL-12 mRNA; 150 nM, −IFN): 99 % UTC | IL-12 mRNA expression, +IFN % UTC (IL-12 mRNA; [1]): 129 % UTC | IL-12 mRNA expression, % UTC (IL-12 mRNA; 300 nM, +IFN): 52 % UTC | IL-12 mRNA expression, % UTC (IL-12 mRNA; 300 nM, −IFN): 80 % UTC | IL-12 mRNA expression, % UTC (IL-12 mRNA; 600 nM, +IFN): 66 % UTC | IL-12 mRNA expression, % UTC (IL-12 mRNA; 600 nM, −IFN): 98 % UTC | IL-6 mRNA expression, % UTC (IL-6 mRNA; 75 nM, +IFN): 78 % UTC | IL-6 mRNA expression, % UTC (IL-6 mRNA; 75 nM, −IFN): 77 % UTC | IL-6 mRNA expression, % UTC (IL-6 mRNA; 150 nM, +IFN): 69 % UTC | IL-6 mRNA expression, % UTC (IL-6 mRNA; 150 nM, −IFN): 68 % UTC | IL-6 mRNA expression, % UTC (IL-6 mRNA; 300 nM, +IFN): 70 % UTC | IL-6 mRNA expression, % UTC (IL-6 mRNA; 300 nM, −IFN): 65 % UTC | IL-6 mRNA expression, % UTC (IL-6 mRNA; 600 nM, +IFN): 59 % UTC | IL-6 mRNA expression, % UTC (IL-6 mRNA; 600 nM, −IFN): 77 % UTC
